This is an account of results in patent publication US8999691B2 (priority 2010, dated 2015).

Data set [1] concerns the target Botryotinia fuckeliana glucose dehydrogenase (Bfu-GDH, FAD-GDH), wild type, SEQ ID NO:2 (Botrytis cinerea, UniProt A0A384K3P1). The data set is described as follows: Michaelis-Menten saturation kinetics with glucose (DCIP/PMS dehydrogenase assay). It counts as biochemical. The text has this: (§1) Transformants BL21(DE3) for expressing each of the modified enzymes were pre-cultured.

In data set [2] the target is Botryotinia fuckeliana glucose dehydrogenase (Bfu-GDH, SEQ ID NO:2) variant G53A (Botrytis cinerea, UniProt A0A384K3P1, G69A). Particulars: glucose 1-40 mM; pH 6.5; partially purified enzyme. As to the method: (§2) Site-specific mutagenesis was carried out by the QuikChange™ method. In the QuikChange™ method, the pET30c-Bfu-GDH created in Example 1 was used as the template, and amplified by PCR with mutagenesis primers. Next, DpnI was added to the reaction mixture and incubated at 37° C. for 60 minutes to digest the template DNA, and E. coli DH5a was transformed. After culturing overnight in an LB agar culture (50 μg/mL kanamycin), the plasmid was extracted from randomly selected clones, and the sequence was analyzed to confirm that the target mutation was introduced. The resulting PCR products were NdeI and HindIII digested (37° C., 2 hours), ligated with the same restriction enzyme-digested pET30c, and E. coli BL21(DE3) was transformed. After culturing overnight In an LB agar medium (50 μg/mL kanamycin), the plasmid was extracted from randomly selected clones, and the sequence was analyzed to confirm the mutation.
as §1

Data set [3] addresses Botryotinia fuckeliana glucose dehydrogenase (Bfu-GDH, SEQ ID NO:2) variant G53A/S514G (Botrytis cinerea, UniProt A0A384K3P1, G69A/S530G). Particulars: glucose 1-40 mM; pH 6.5; partially purified enzyme. As to the method: as §2, §1
Data set [4] addresses Botryotinia fuckeliana glucose dehydrogenase (Bfu-GDH, SEQ ID NO:2) variant N176E (Botrytis cinerea, UniProt A0A384K3P1, N192E). The following applies: glucose 1-40 mM; pH 6.5; partially purified enzyme. As for the experimental part: as §2, §1
The target of data set [5] is Botryotinia fuckeliana glucose dehydrogenase (Bfu-GDH, SEQ ID NO:2) variant N176K (Botrytis cinerea, UniProt A0A384K3P1, N192K). The following applies: glucose 1-40 mM; pH 6.5; partially purified enzyme. As for the experimental part:
as §2, §1

In data set [6] the target is Botryotinia fuckeliana glucose dehydrogenase (Bfu-GDH, SEQ ID NO:2) variant N176R (Botrytis cinerea, UniProt A0A384K3P1, N192R). The following applies: glucose 1-40 mM; pH 6.5; partially purified enzyme. As to the method:
as §2, §1

For data set [7], the target named is Botryotinia fuckeliana glucose dehydrogenase (Bfu-GDH, SEQ ID NO:2) variant N176S (Botrytis cinerea, UniProt A0A384K3P1, N192S). The following applies: glucose 1-40 mM; pH 6.5; partially purified enzyme. As to the method: as §2, §1
Data set [8] deals with Botryotinia fuckeliana glucose dehydrogenase (Bfu-GDH, SEQ ID NO:2) variant S514G (Botrytis cinerea, UniProt A0A384K3P1, S530G). Particulars: glucose 1-40 mM; pH 6.5; partially purified enzyme. As to the method: as §2, §1
Data set [9] has as its target Botryotinia fuckeliana glucose dehydrogenase (Bfu-GDH, SEQ ID NO:2) variant S552C (Botrytis cinerea, UniProt A0A384K3P1, S568C). Particulars: glucose 1-40 mM; pH 6.5; partially purified enzyme. As for the experimental part:
as §2, §1

Substrate in data set [10]: OC[C@H]1OC(O)[C@H](O)[C@@H](O)[C@@H]1O
The data set can be described thus: purified protein, by the assay type. It counts as biochemical, Aspergillus oryzae T1. Particulars: other: glucose, DCIP/PMS, pH 6.5, enzyme expressed 20° C./28 h. An excerpt: According to a prediction from the SignalP 3.0 Server, the region from the N-terminus to the Lys residue at the position 23 was predicted to be a signal peptide. A nucleotide sequence which encodes the amino acid sequence having the initiation methionine and the downstream sequence from the Asn residue at the position 24 was designed and totally synthesized. The amino acid sequence of the protein (referred to below as “Ao-GDH”) encoded by the gene thus obtained is shown in SEQ ID NO:4. E. coli BL21(DE3) (F—, ompT, hsdSB(rB- mB-), gal(λcI 857, ind1, Sam7, nin5, LacUV5-T7gene1), dcm(DE3): from Novagen) was used as the host for recombinant production. The gene expression vector used was pET30c (kan, LacI; from Novagen), and the chaperone co-expression vector used was pGro7 (GroEL, GroES; from TaKaRa).
(§3) (10-fold dilution at a final concentration).

Substrate in data set [11]: OC[C@H]1OC(O)[C@H](O)[C@@H](O)[C@@H]1O
The data set is described as follows: purified protein, by the assay type. It counts as biochemical, Aspergillus oryzae T1. The following applies: other: glucose, DCIP/PMS, pH 6.5, enzyme expressed 20° C./28 h.
Source text: as §3
The source holds these as a separate data set.

Substitutions are numbered along the chain they refer to. Numbers in names are those of the source.

As to `OC[C@H]1OC(O)[C@H](O)[C@@H](O)[C@@H]1O` (some centres unmarked) [glucose], the Vmax in data set [1] (Table 3 (unit not given), glucose) is 8.7. For the same molecule, the “Vmax (apparent maximum activity)” value in data set [1] (glucose 1-40 mM, pH 6.5, partially purified enzyme) is 8.7 U/mg protein; in data set [2], 8.1 U/mg protein; in data set [3], 8.9 U/mg protein; in data set [4], 10.4 U/mg protein; in [5], 25.1 U/mg protein; in data set [6] it was 24.9 U/mg protein. The “Vmax (apparent maximum activity)” value in data set [7] was 11.5 U/mg protein; in data set [8] it was 36.6 U/mg protein; in [9] it was 7.8 U/mg protein.

B1: Aspergillus oryzae T1 glucose dehydrogenase (Ao-GDH, FAD-GDH), wild type, SEQ ID NO:4 (Aspergillus oryzae) (protein)
chain: MNTTTYDYIVVGGGTSGLVVANRLSENPDVSVLLLEAGASVFNNPDVTNANGYGLAFGSAIDWQYQSINQSYAGGKQQVLRAGKALGGTSTINGMAYTRAEDVQIDVWQKLGNEGWTWKDLLPYYLKSENLTAPTSSQVAAGAAYNPAVNGKEGPLKVGWSGSLASGNLSVALNRTFQAAGVPWVEDVNGGKMRGFNIYPSTLDVDLNVREDAARAYYFPYDDRKNLHLLENTTANRLFWKNGSAEEAIADGVEITSADGKVTRVHAKKEVIISAGALRSPLILELSGVGNPTILKKNNITPRVDLPTVGENLQDQFNNGMAGEGYGVLAGASTVTYPSISDVFGNETDSIVASLRSQLSDYAAATVKVSNGHMKQEDLERLYQLQFDLIVKDKVPIAEILFHPGGGNAVSSEFWGLLPFARGNIHISSNDPTAPAAINPNYFMFEWDGKSQAGIAKYIRKILRSAPLNKLIAKETKPGLSEIPATAADEKWVEWLKANYRSNFHPVGTAAMMPRSIGGVVDNRLRVYGTSNVRVVDASVLPFQVCGHLVSTLYAVAERASDLIKEDAKSA
For B1, in data set [10], the Km came out at 44.7 mM and the Vmax came to 120 µmol/min/mg.

B2: Aspergillus oryzae T1 glucose dehydrogenase (Ao-GDH, SEQ ID NO:4) variant G190C (Aspergillus oryzae; G212C) (protein)
chain: B1 chain with G190C
Turning to B2, in data set [11], the Km was 51.3 mM and the Vmax came out at 119 µmol/min/mg.
